Entries after “also recorded” stand apart in the source; their conditions may differ. Where a SMILES comes first, the peptide text is derived from it. Bridges are numbered along the chain shown (N, C = ends). [ ]: non-standard residue; d: D form. Hyp = O=C(O)[C@@H]1C[C@@H](O)CN1
What was measured:
[1] = test system: mice; settings: mouse, in vivo
[2] = test system: hemidiaphragm muscle; set-up: species or system mouse
[3] = molecular target: Torpedo muscle-type nicotinic acetylcholine receptors (nAChRs) (Tetronarce californica, UniProt P02710+P02714+P02718); format: binding
Torpedo muscle-type nicotinic acetylcholine receptors (nAChRs), sequence (P02710 whole entry, looked up): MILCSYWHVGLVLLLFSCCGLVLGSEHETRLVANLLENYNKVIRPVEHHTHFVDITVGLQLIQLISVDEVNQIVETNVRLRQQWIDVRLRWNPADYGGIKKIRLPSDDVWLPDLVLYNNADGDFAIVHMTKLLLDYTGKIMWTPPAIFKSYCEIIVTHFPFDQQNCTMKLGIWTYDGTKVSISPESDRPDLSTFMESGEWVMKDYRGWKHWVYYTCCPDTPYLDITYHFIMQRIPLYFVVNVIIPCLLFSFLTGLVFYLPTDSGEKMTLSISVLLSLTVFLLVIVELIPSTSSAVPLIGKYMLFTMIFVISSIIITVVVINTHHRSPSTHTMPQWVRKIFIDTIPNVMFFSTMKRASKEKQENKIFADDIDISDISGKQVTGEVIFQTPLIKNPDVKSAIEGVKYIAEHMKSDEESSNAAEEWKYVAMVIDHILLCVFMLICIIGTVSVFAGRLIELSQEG
Torpedo muscle-type nicotinic acetylcholine receptors (nAChRs), sequence (P02714 whole entry, looked up): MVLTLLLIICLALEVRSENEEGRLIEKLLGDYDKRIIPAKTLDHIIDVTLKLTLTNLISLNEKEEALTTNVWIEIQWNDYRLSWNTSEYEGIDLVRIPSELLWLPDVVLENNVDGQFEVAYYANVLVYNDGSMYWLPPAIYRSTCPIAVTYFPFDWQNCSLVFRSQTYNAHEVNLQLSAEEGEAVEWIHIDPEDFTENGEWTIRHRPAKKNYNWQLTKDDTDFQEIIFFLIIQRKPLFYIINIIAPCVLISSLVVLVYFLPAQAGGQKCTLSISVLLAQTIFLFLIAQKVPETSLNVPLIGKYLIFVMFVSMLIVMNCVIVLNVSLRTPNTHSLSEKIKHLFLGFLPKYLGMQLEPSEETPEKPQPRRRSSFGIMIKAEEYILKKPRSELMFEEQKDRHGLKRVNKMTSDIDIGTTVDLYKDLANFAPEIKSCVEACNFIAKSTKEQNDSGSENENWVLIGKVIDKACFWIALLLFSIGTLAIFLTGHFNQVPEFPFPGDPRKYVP
Torpedo muscle-type nicotinic acetylcholine receptors (nAChRs), sequence (P02718 whole entry, looked up): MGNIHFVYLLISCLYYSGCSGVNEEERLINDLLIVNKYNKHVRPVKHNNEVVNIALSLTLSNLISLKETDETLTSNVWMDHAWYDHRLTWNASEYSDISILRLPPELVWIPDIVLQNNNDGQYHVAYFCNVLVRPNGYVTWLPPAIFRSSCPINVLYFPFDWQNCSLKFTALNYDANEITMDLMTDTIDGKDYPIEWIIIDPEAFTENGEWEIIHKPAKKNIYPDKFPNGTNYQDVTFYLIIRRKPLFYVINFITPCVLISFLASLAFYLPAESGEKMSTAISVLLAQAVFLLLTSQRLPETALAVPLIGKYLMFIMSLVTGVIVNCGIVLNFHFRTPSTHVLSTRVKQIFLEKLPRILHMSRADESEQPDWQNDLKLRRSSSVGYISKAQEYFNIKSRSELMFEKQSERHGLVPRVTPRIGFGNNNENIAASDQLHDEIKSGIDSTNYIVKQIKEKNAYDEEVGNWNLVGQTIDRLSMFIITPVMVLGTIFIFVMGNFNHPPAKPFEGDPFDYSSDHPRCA

[4] = test system: mice; settings: mouse, in vivo, ip
[5] = test system: isolated mouse phrenic-hemidiaphragm nerve-muscle preparations; settings: for IC50: pH 7.4

CC[C@H](C)[C@H](NC(=O)[C@H](Cc1ccc(O)cc1)NC(=O)[C@H](Cc1cnc[nH]1)NC(=O)[C@@H]1CSSC[C@H](NC(=O)[C@@H]2CCCN2C(=O)[C@H](CCCNC(=N)N)NC(=O)[C@H](CC(C)C)NC(=O)[C@H](CC(=O)O)NC(=O)[C@@H]2CCCN2C(=O)[C@H](CCCCN)NC(=O)CNC(=O)CN)C(=O)N[C@@H](Cc2cnc[nH]2)C(=O)N2CCC[C@H]2C(=O)N2CCC[C@H]2C(=O)N1)C(=O)N1CCC[C@H]1C(=O)N[C@@H](CCCNC(=N)N)C(=O)N1CCC[C@H]1C(=O)N[C@@H](CCCCN)C(=O)N1CCC[C@H]1C(=O)N[C@@H](CCCNC(=N)N)C(=O)O [Waglerin 1] (H-GGKPDLRPCHPPCHYIPRPKPR-OH; disulfide 9-13)
mice lethality [1]: 100% | time to death [1]: ≤ 4.7 ± 0.7 min | IC50 (mice death) ([1]; ip): 0.7 µg/g

CC[C@H](C)[C@H](NC(=O)CNC(=O)[C@H](Cc1ccc(O)cc1)NC(=O)[C@@H](N)[C@@H](C)O)C(=O)N[C@@H](Cc1ccc(O)cc1)C(=O)N[C@@H](CC(=O)O)C(=O)N[C@@H](C)C(=O)N[C@@H](CCCCN)C(=O)N1CCC[C@H]1C(=O)N1C[C@H](O)C[C@H]1C(=O)N[C@@H](Cc1ccccc1)C(=O)N[C@@H](CO)C(=O)N[C@H]1CSSC[C@@H](C(=O)N[C@H](C(=O)N[C@@H](CC(C)C)C(=O)N2CCC[C@H]2C(=O)N2C[C@H](O)C[C@H]2C(=O)N[C@@H](CC(N)=O)C(=O)N[C@@H](CC(C)C)C(=O)N[C@@H](CCCNC(=N)N)C(=O)N2C[C@H](O)C[C@H]2C(=O)N[C@@H](CCCCN)C(=O)N[C@@H](Cc2ccccc2)C(=O)N[C@@H](CCCCN)C(=O)N[C@@H](CCC(=O)O)C(N)=O)C(C)C)NC(=O)CNC(=O)CNC(=O)[C@H](CCCNC(=N)N)NC(=O)[C@H](CC(C)C)NC(=O)CNC(=O)[C@H](C)NC1=O [αC-conotoxin PrXA] (H-TYGIYDAKP[Hyp]FSCAGLRGGCVLP[Hyp]NLR[Hyp]KFKE-NH2; disulfide 13-20)
effect on contractility force under direct electrical stimulation [2]: did not alter muscle contractility force; also recorded: Lack of toxin effect on direct muscle stimulation | inhibition of [^125I]-α-bungarotoxin binding [3]: fully inhibited | D/T (dead/treated mice) [4]: 3/3 | inhibition of muscle contraction [5]: concentration- and time-dependent inhibition of muscle contraction | time to full block of muscle contraction [5]: 15 min | IC50 [5]: 23 ± 2 nM

CC[C@H](C)[C@H](NC(=O)[C@H](Cc1ccc(O)cc1)NC(=O)[C@H](Cc1c[nH]cn1)NC(=O)[C@@H]1CSSC[C@H](NC(=O)[C@@H]2CCCN2C(=O)[C@H](CCCNC(=N)N)NC(=O)[C@H](CC(C)C)NC(=O)[C@H](CC(=O)O)NC(=O)[C@@H]2CCCN2C(=O)[C@H](CCCCN)NC(=O)CNC(=O)CN)C(=O)N[C@@H](Cc2c[nH]cn2)C(=O)N2CCC[C@H]2C(=O)N2CCC[C@H]2C(=O)N1)C(=O)N1CCC[C@H]1C(=O)N[C@@H](CCCNC(=N)N)C(=O)N1CCC[C@H]1C(=O)N[C@@H](CCCCN)C(=O)N1CCC[C@H]1C(=O)N[C@@H](CCCNC(=N)N)C(=O)O [Waglerin 1] (H-GGKPDLRPCHPPCHYIPRPKPR-OH; disulfide 9-13)
maximal block of contraction [5]: full block of contraction | potency relative to αC-conotoxin PrXA [5]: twofold less potent | IC50 [5]: 58 ± 2 nM
